From patent publication US20180062087A1, “Organic Compound, Organic Semiconductor Material, Organic Thin Film And Method For Producing The Same, Organic Semiconductor Composition, And Organic Semiconductor Device” (Nippon Kayaku Kabushiki Kaisha, priority 2015, published 2018)

Key:
Type in all cases: physicochemical
[1] = Measurement of solubility in organic solvents at 25° C.; settings: for Solubility in organic solvent at 25° C., chloroform / Solubility in organic solvent at 25° C., THN / Solubility in organic solvent at 25° C., toluene: visual inspection; for Solubility in organic solvent at 25° C., THN: tetrahydronaphthalene (THN)
Method: (§1) About 1 mg of each organic compound powder was weighed and fed into vials, and the weight of the content in each vial was measured precisely. Into these vials, chloroform, toluene, and tetrahydronaphthalene (THN) were added at 25° C. (room temperature). When the added solvent dissolved completely, the mass was measured precisely again. The mass of the organic compound was divided by the total weight of the organic compound and the added solvent, and was multiplied by 100 to obtain solubility. Dissolution or non-dissolution was judged by visual inspection.

[2] = Differential scanning calorimetry (transition point, heat resistance); settings: DSC endothermic peak indicating phase transition; powder in aluminum pan heated up to 550° C.
Method: In the following examples, reactions and measurements in an inert gas atmosphere were conducted with use of a solvent obtained by anhydrous distillation, and other reactions and operations were conducted with use of commercial Grade 1 or Special Grade solvents. The reagents were purified, as required, by anhydrous distillation or the like, and otherwise commercially available Grade 1 or Special Grade reagents were employed. In the examples, following analytical instrument and measurement instrument were employed. The nuclear magnetic resonance spectroscopy was conducted by means of LAMBDA-NMR (395.75 MHz, σ value, ppm, internal standard TMS). The differential scanning calorimetry was conducted by means of a differential scanning calorimeter METTLER-TOLED DSC1.
About 2 mg of each organic compound powder was weighed out and fed hermetically in an aluminum pan. Each sample was set on a differential scanning calorimeter and heated up to 550° C.

[3] = Storage stability in a solution state (solution state after one week); settings: solutions of the solubility test
From the text: The organic compound represented by Formula (A) is required to be soluble in an organic solvent. The organic solvent is not particularly limited as far as being capable of dissolving the organic compound represented by Formula (A). Considering environmental problems and other conditions, the organic solvent is preferably and practically a non-halogenated solvent. Further, considering the stability of a solution obtained by dissolving the organic compound represented by Formula (A) in the organic solvent, the organic compound represented by Formula (A) needs to have reasonably high solubility at room temperature. In the organic solvent, the solubility of the organic compound represented by Formula (A) at 25° C. is usually 0.1 mass % or higher, preferably 0.3 mass % or higher, more preferably 0.5 mass % or higher, and further preferably 0.7 mass % or higher. In chloroform, the solubility of the organic compound represented by Formula (A) at 25° C. is usually 0.1 mass % or higher, preferably 0.3 mass % or higher, more preferably 0.5 mass % or higher, and further preferably 0.7 mass % or higher. In toluene, the solubility of the organic compound represented by Formula (A) at 25° C. is usually 0.1 mass % or higher, preferably 0.3 mass % or higher, more preferably 0.5 mass % or higher, and further preferably 0.7 mass % or higher. In tetrahydronaphthalene, the solubility of the organic compound represented by Formula (A) at 25° C. is usually 0.1 mass % or higher, preferably 0.3 mass % or higher, more preferably 0.5 mass % or higher, and further preferably 0.7 mass % or higher.
as §1

| SMILES | Solubility in the organic solvent at 25° C. relative to the organic compound in Comparative example 2 ([1]; at the maximum, versus Comparative example 2) | Solubility compared with the organic compound in Comparative example 1 ([1]; organic solvent, 25° C., versus Comparative example 1) | Peak top temperature [2] | Solubility in organic solvent at 25° C., chloroform ([1]; 25° C.) | Solubility in organic solvent at 25° C., THN ([1]; 25° C.) | Solubility in organic solvent at 25° C., toluene ([1]; 25° C.) | Solution state after one week [3] |
| --- | --- | --- | --- | --- | --- | --- | --- |
| CCCCCCc1ccc2cc3sc4c5cc(-c6ccccc6)ccc5sc4c3cc2c1 [Organic compound 1] | ≥ 10 times | higher solubility | – | – | – | – | – |
| CCCCCCCCCCc1ccc2c(c1)sc1c3ccc(-c4ccccc4)cc3sc21 [Comp. Ex. 3, reference compound] | – | – | ≤ 150 °C | – | – | – | – |
| CCCCCCCCc1ccc2sc3c4cc5cc(-c6ccccc6)ccc5cc4sc3c2c1 [Organic compound 5] | – | – | 186 °C | 0.4 mass % | 0.4 mass % | 0.4 mass % | no precipitation |
| CCCCCCc1ccc2cc3sc4c5cc(-c6ccc(CC)cc6)ccc5sc4c3cc2c1 [Organic compound 8] | – | – | 229 °C | >2 mass % | 1.4 mass % | 0.9 mass % | no precipitation |
| CCCCc1ccc2sc3c4cc5cc(-c6ccccc6)ccc5cc4sc3c2c1 [Organic compound 4] | – | – | 218 °C | 0.5 mass % | 0.5 mass % | 0.5 mass % | no precipitation |
| CCCCCc1ccc(-c2ccc3sc4c5cc6cc(-c7ccccc7)ccc6cc5sc4c3c2)cc1 [Organic compound 9] | – | – | 244 °C | – | – | – | – |
| CCCCCCCCCCc1ccc2cc3sc4c5cc(-c6ccccc6)ccc5sc4c3cc2c1 [Organic compound 6] | – | – | 185 °C | 0.3 mass % | 0.3 mass % | 0.2 mass % | no precipitation |
